The results in this text go back to ChEMBL document CHEMBL1134081, “MEK (MAPKK) inhibitors. Part 2: structure-activity relationships of 4-anilino-3-cyano-6,7-dialkoxyquinolines” (Bioorg Med Chem Lett, 2001).

SMILES strings stand for the structures.

The target in test [1] is T1, Dual specificity mitogen-activated protein kinase kinase 1 (Homo sapiens, UniProt Q02750). Kind of test: Inhibitory activity against Dual specificity mitogen-activated protein kinase kinase using direct MEK assay (which by-passes the need for activated Raf by using an activated GST-MEK).
T1 sequence (Q02750 whole entry): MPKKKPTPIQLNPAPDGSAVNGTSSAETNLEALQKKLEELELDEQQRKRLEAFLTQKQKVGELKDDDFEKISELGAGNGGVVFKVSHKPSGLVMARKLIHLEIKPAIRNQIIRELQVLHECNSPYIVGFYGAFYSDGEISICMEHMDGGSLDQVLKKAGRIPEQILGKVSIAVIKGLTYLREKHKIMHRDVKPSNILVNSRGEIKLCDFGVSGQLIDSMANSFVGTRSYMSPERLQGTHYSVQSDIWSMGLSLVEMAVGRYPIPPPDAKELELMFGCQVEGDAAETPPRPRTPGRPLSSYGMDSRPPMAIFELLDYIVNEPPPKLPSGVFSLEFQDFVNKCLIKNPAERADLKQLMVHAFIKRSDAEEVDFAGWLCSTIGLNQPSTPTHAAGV
Test [2] concerns the target T1, Dual specificity mitogen-activated protein kinase kinase 1. Description: Inhibitory activity against Dual specificity mitogen-activated protein kinase kinase using coupled MEK assay (which uses activated Raf to activate an inactivate GST-MEK).
In the next test the test system is LoVo. Description: Inhibition of LoVo human colon tumor cell proliferation.
In test [3] the target is T1, Dual specificity mitogen-activated protein kinase kinase 1. Description: Inhibition of Dual specificity mitogen-activated protein kinase kinase in direct activated MEK assay.
The target is the same in test [4]. Description: Inhibition of Dual specificity mitogen-activated protein kinase kinase in coupled activated Raf/MEK assay.

By IC50 is commonly meant the point on the concentration scale where inhibition reaches its midpoint. Lower therefore signals inhibition by little substance. On to `COc1cc2c(Nc3ccc(Oc4ccncc4)cc3)c(C#N)cnc2cc1OCCCN1CCOCC1`, for which the IC50 was determined as 81 nM in test [1] and 26 nM in test [2].

Turning to `COc1cc2c(Nc3ccc(OC4CCCCC4)cc3)c(C#N)cnc2cc1OCCCN1CCOCC1`, the figures for the IC50 in test [1] and in test [2] were 320 nM and 110 nM, respectively.

For `COc1cc2c(Nc3ccc(Cc4ccsc4)cc3)c(C#N)cnc2cc1OCCCN1CCOCC1`, the IC50 in test [1] was 23 nM; in test [2] it was 4.2 nM.

With `COc1cc2c(Nc3ccc(Cc4ccccc4)cc3)c(C#N)cnc2cc1OCCCN1CCOCC1`, the IC50 in the test with LoVo came to 210 nM; in test [1], 14 nM; in test [2], 2.7 nM.

In the case of `COc1cc2ncc(C#N)c(Nc3ccc(Nc4ccccc4)cc3)c2cc1OC`, the IC50 in test [1] worked out at 1200 nM; in test [2] it was 160 nM.

As for `COc1cc2c(Nc3ccc(Cc4ccoc4)cc3)c(C#N)cnc2cc1OCCCN1CCOCC1`, the values for the IC50 in test [1] and in test [2] were 43 nM and 14 nM, respectively.

Consider `COc1cc2ncc(C#N)c(Nc3ccc(Oc4ccc(Cl)cc4)cc3)c2cc1OC`, for which the IC50 in test [1] came to 210 nM; in test [2] it was 43 nM.

As to `COc1cc2ncc(C#N)c(Nc3ccc(SC)cc3)c2cc1OC`, the IC50 turned out to be 1300 nM in test [1] and 280 nM in test [2].

Take `COc1cc2c(Nc3ccc(SC4CCCCC4)cc3)c(C#N)cnc2cc1OCCCN1CCOCC1`: the IC50 in test [1] stood at 300 nM; in test [2], 21 nM.

As for `COc1cc2c(Nc3ccc(Sc4ccccc4)cc3)c(C#N)cnc2cc1OCCCN1CCOCC1`, the half-maximal inhibitory concentration (IC50) in the test with LoVo is 220 nM; in test [1] it was 5.7 nM; in test [2], 1.1 nM.

For `COc1cc2c(Nc3ccc(Cc4cccs4)cc3)c(C#N)cnc2cc1OCCCN1CCOCC1`, the IC50 was found to be 20 nM in test [1] and 4.4 nM in test [2].

`COc1ccc(Nc2c(C#N)cnc3cc(OCCCN4CCOCC4)c(OC)cc23)cc1`: the IC50 in test [1] is 250 nM; in test [2], 99 nM.

As to `COc1cc2ncc(C#N)c(Nc3ccccc3Oc3ccccc3)c2cc1OC`, the IC50 in test [1] and in test [2] was over 10000 nM each time.

With `COc1cc2c(Nc3ccc(CC4CCCCC4)cc3)c(C#N)cnc2cc1OCCCN1CCOCC1`, the values for the IC50 in test [1] and in test [2] were 3300 nM and 200 nM, respectively.

Compound `COc1cc2c(Nc3ccc(Oc4ccccc4)cc3)c(C#N)cnc2cc1OCCCN1CCOCC1` came in with an IC50 in test [2] of 2.4 nM.

Regarding `COc1ccc(Nc2c(C#N)cnc3cc(OC)c(OC)cc23)cc1`, the values for the IC50 in test [1] and in test [2] were 3000 nM and 520 nM, respectively.

As for `COc1cc2c(Nc3ccc(CCc4ccccc4)cc3)c(C#N)cnc2cc1OCCCN1CCOCC1`, the half-maximal inhibitory concentration (IC50) in test [3] is 150 nM; in test [4] it was 33 nM.

Consider `COc1cc2c(Nc3ccc(Cc4ccco4)cc3)c(C#N)cnc2cc1OCCCN1CCOCC1`, for which the values for the IC50 in test [1] and in test [2] were 66 nM and 20 nM, respectively.

For `COc1cc2ncc(C#N)c(Nc3ccc(O)cc3)c2cc1OC`, the IC50 in test [1] came to 2200 nM; in test [2] it was 550 nM.
